Results: patent US9187497B2, “Substituted pyrido[3,2-e]pyrrolo[1,2-a]pyrazines as inhibitors of poly(ADP-ribose)polymerase (PARP)” (Takeda Phamaceutical Company Limited, priority 2009, dated 2015)

What was measured:
[1] = biological target: T1, PARP (Homo sapiens, UniProt P09874); assay: PARP ELISA colorimetric assay of inhibition of PARP catalytic activity (IC50); assay type: biochemical; details: pIC50=-log(IC50), IC50 in molar concentration; ELISA-based PARP kit, 10 minutes of catalysis
T1 construct: purchased Trevigen 4684-096-01 (enzyme); kit 4684-096-K HT
Experimental: Inhibition Constant (IC50) from PARP ELISA
Inhibition of PARP catalytic activity was determined by use of an ELISA-based colorimetric PARP/Apoptosis Assay kit (part number 4684-096-K HT, Trevigen). To each histone coated well in the 96-well plate supplied by the manufacturer (part number 4677-096-P) is added 39 μl of PARP buffer (part number 4671-096-02) and 1 μl of test compound dissolved in DMSO (diluted serially 3-fold 11 times). After mixing, 5 μl of 0.1 nM PARP (part number 4684-096-01) is added and the solution allowed to stand at ambient temperature for 10 minutes. PARP catalysis is initiated with the addition of 5 μl of 100 μM β-nicotinamide adenine dinucleotide (NAD+) (part number 4684-096-02) with activated DNA (part number 4671-096-06). After 10 minutes of catalysis the reaction is quenched by solvent aspiration followed by irrigation of the assay wells 4 times with phosphate buffered saline (PBS) containing 0.1% t-Octylphenoxypolyethoxyethanol (Triton® X-100). Mouse Anti-poly ADP ribose (PAR) monoclonal antibody, goat antimouse immunoglobulin G (IgG)-horse radish peroxidase (HRP) conjugate and HRP substrate are added according to the manufacture's specifications to generate a colorimetric signal proportional to PARP catalytic activity. An IC50 for the test compound is calculated from the equation Absorbance=(Amax−background)/(1+([cmpd]/IC50)^n)+background fit to the 12 point test compound concentration gradient via nonlinear least squares.

[2] = test system: Jurkat cell line; assay: PARP cellular chemopotentiation assay (MTS cell viability with and without TMZ); assay type: cell-based; details: ratio of EC50 for inhibition of cell viability without and with 100 μM TMZ; Jurkat cells, 96 hours of treatment
In short: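 Jurkat cells, 10,000/well, pre-cultured 24 h, then treated 96 h with serial compound dilutions (0.5% DMSO) with or without 100 μM TMZ. Viability by MTS conversion (OD490), normalized to DMSO controls; EC50 from curve fits, PF50 = EC50 without TMZ / EC50 with TMZ.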

T1 sequence (P09874 whole entry): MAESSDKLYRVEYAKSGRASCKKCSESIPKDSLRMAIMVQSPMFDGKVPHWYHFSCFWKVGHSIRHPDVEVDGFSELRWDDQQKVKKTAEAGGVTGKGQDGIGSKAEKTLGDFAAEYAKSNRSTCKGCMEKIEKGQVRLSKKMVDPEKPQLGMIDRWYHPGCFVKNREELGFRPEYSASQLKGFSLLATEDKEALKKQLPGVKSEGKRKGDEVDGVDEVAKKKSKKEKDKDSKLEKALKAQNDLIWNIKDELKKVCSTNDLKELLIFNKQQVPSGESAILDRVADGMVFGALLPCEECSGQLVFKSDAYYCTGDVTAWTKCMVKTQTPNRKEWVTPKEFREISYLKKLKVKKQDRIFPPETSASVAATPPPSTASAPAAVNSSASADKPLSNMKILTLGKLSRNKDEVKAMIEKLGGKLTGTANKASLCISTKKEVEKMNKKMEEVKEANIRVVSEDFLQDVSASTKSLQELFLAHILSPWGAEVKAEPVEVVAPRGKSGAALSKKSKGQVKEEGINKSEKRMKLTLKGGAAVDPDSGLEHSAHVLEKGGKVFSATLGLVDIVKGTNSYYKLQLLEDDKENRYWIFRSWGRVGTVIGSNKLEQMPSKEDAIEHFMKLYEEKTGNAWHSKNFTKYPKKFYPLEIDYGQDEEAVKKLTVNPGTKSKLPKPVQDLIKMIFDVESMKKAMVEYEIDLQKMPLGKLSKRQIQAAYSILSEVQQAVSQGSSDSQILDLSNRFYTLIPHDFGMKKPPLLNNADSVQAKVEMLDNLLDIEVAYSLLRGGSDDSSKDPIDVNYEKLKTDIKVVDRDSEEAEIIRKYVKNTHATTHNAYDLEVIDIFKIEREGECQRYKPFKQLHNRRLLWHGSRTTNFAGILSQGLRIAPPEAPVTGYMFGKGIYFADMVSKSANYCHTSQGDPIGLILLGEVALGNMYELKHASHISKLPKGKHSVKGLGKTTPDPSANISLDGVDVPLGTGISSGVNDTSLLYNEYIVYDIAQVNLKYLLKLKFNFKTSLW

| SMILES | IC50 [1] | PF50 [2] |
| --- | --- | --- |
| CNC(=O)c1ccc(N2CCN(Cc3cnc4c(c3)NC(=O)[C@@H]3CCCCN43)CC2)nc1 [Compound 77, (S)—N-methyl-6-(4-((6-oxo-6,6a,7,8,9,10-hexahydro-5H-dipyrido[1,2-a:3′,2′-e]pyrazin-3-yl)methyl)piperazin-1-yl)nicotinamide] | 15.8 to 39.8 nM | >10 |
| O=C1Nc2cc(CN3CCN(c4ccc(Cl)cc4)CC3)cnc2N2CCSCC12 (centres unmarked) [Compound 87, 3-((4-(4-chlorophenyl)piperazin-1-yl)methyl)-6a,7,9,10-tetrahydropyrido[3,2-e][1,4]thiazino[4,3-a]pyrazin-6(5H)-one] | 15.8 to 39.8 nM | >10 |
| N#Cc1ccc(N2CCN(Cc3cnc4c(c3)NC(=O)[C@@H]3CSCCN43)CC2)cc1 [Compound 90, (R)-4-(4-((6-oxo-5,6,6a,7,9,10-hexahydropyrido[3,2-e][1,4]thiazino[4,3-a]pyrazin-3-yl)methyl)piperazin-1-yl)benzonitrile] | ≤ 12.6 nM | >10 |
| CC(C)N1CC(=O)Nc2cc(CN3CC=C(c4ccc(Cl)cc4)CC3)cnc21 [Compound 94, 7-((4-(4-chlorophenyl)-5,6-dihydropyridin-1(2H)-yl)methyl)-4-isopropyl-3,4-dihydropyrido[2,3-b]pyrazin-2(1H)-one] | ≥ 50.1 nM | ≧0 |
| CC(C)N1CC(=O)Nc2cc(CN3CCN(c4ccc(Cl)cc4)CC3)cnc21 [Compound 95, 7-((4-(4-chlorophenyl)piperazin-1-yl)methyl)-4-isopropyl-3,4-dihydropyrido[2,3-b]pyrazin-2(1H)-one] | ≥ 50.1 nM | ≧0 |
| N#Cc1ccc(N2CCN(Cc3cnc4c(c3)NC(=O)[C@@H]3CCN43)CC2)cc1 [Compound 102, (S)-4-(4-((6-oxo-6,6a,7,8-tetrahydro-5H-azeto[1,2-a]pyrido[3,2-e]pyrazin-3-yl)methyl)piperazin-1-yl)benzonitrile] | 15.8 to 39.8 nM | ≧0 |
| N#Cc1ccc(N2CCN(Cc3cnc4c(c3)NC(=O)CC3CCCN43)CC2)cc1 (centres unmarked) [Compound 103, 4-(4-((6-oxo-6,7,7a,8,9,10-hexahydro-5H-pyrido[3,2-b]pyrrolo[1,2-d][1,4]diazepin-3-yl)methyl)piperazin-1-yl)benzonitrile] | 15.8 to 39.8 nM | ≧0 |
| O=C1CC2CCCN2c2ncc(CN3CCN(c4ccc(Cl)cc4)CC3)cc2N1 (centres unmarked) [Compound 104, 3-((4-(4-chlorophenyl)piperazin-1-yl)methyl)-7a,8,9,10-tetrahydro-5H-pyrido[3,2-b]pyrrolo[1,2-d][1,4]diazepin-6(7H)-one] | ≥ 50.1 nM | ≧0 |
| C[C@H]1CN(c2ccc(C#N)cc2)CCN1Cc1cnc2c(c1)NC(=O)[C@@H]1CSCCN21 [Compound 105, 4-((S)-3-methyl-4-(((R)-6-oxo-5,6,6a,7,9,10-hexahydropyrido[3,2-e][1,4]thiazino[4,3-a]pyrazin-3-yl)methyl)piperazin-1-yl)benzonitrile] | 15.8 to 39.8 nM | >10 |
| CCNC(=O)c1ccc(N2CCN(Cc3cnc4c(c3)NC(=O)[C@@H]3CSCCN43)CC2)c(F)c1 [Compound 106, (R)—N-ethyl-3-fluoro-4-(4-((6-oxo-5,6,6a,7,9,10-hexahydropyrido[3,2-e][1,4]thiazino[4,3-a]pyrazin-3-yl)methyl)piperazin-1-yl)benzamide] | ≤ 12.6 nM | >5000 |
| CCNC(=O)c1ccc(N2CCN(Cc3cnc4c(c3)NC(=O)[C@@H]3CSCCN43)CC2)c(Cl)c1 [Compound 107, (R)-3-chloro-N-ethyl-4-(4-((6-oxo-5,6,6a,7,9,10-hexahydropyrido[3,2-e][1,4]thiazino[4,3-a]pyrazin-3-yl)methyl)piperazin-1-yl)benzamide] | 15.8 to 39.8 nM | >2000 |
| CNC(=O)c1ccc(N2CCN(Cc3cnc4c(c3)NC(=O)[C@@H]3CSCCN43)CC2)c(Cl)c1 [Compound 108, (R)-3-chloro-N-methyl-4-(4-((6-oxo-5,6,6a,7,9,10-hexahydropyrido[3,2-e][1,4]thiazino[4,3-a]pyrazin-3-yl)methyl)piperazin-1-yl)benzamide] | ≤ 12.6 nM | >500 |
| CCNC(=O)c1ccc(N2CCN(Cc3cnc4c(c3)NC(=O)[C@@H]3CCCCN43)CC2)c(F)c1 [Compound 109, (S)—N-ethyl-3-fluoro-4-(4-((6-oxo-6,6a,7,8,9,10-hexahydro-5H-dipyrido[1,2-a:3′,2′-e]pyrazin-3-yl)methyl)piperazin-1-yl)benzamide] | 15.8 to 39.8 nM | >2000 |
| CCNC(=O)c1ccc(N2CCN(Cc3cnc4c(c3)NC(=O)[C@@H]3CCCCN43)CC2)c(Cl)c1 [Compound 110, (S)-3-chloro-N-ethyl-4-(4-((6-oxo-6,6a,7,8,9,10-hexahydro-5H-dipyrido[1,2-a:3′,2′-e]pyrazin-3-yl)methyl)piperazin-1-yl)benzamide] | 15.8 to 39.8 nM | >5000 |
| CNC(=O)c1ccc(N2CCN(Cc3cnc4c(c3)NC(=O)[C@@H]3CCCCN43)CC2)c(Cl)c1 [Compound 111, (S)-3-chloro-N-methyl-4-(4-((6-oxo-6,6a,7,8,9,10-hexahydro-5H-dipyrido[1,2-a:3′,2′-e]pyrazin-3-yl)methyl)piperazin-1-yl)benzamide] | 15.8 to 39.8 nM | >5000 |
| CNC(=O)c1ccc(N2CCN(Cc3cnc4c(c3)NC(=O)[C@@H]3CCCCN43)CC2)c(F)c1 [Compound 112, (S)-3-fluoro-N-methyl-4-(4-((6-oxo-6,6a,7,8,9,10-hexahydro-5H-dipyrido[1,2-a:3′,2′-e]pyrazin-3-yl)methyl)piperazin-1-yl)benzamide] | ≤ 12.6 nM | >10 |
| CNC(=O)c1ccc(N2CCN(Cc3cnc4c(c3)NC(=O)[C@@H]3CCCCN43)CC2)c(C)c1 [Compound 113, (S)—N,3-dimethyl-4-(4-((6-oxo-6,6a,7,8,9,10-hexahydro-5H-dipyrido[1,2-a:3′,2′-e]pyrazin-3-yl)methyl)piperazin-1-yl)benzamide] | ≥ 50.1 nM | >2000 |
| CCNC(=O)c1ccc(N2CCN(Cc3cnc4c(c3)NC(=O)[C@@H]3CCCCN43)CC2)c(C)c1 [Compound 114, (S)—N-ethyl-3-methyl-4-(4-((6-oxo-6,6a,7,8,9,10-hexahydro-5H-dipyrido[1,2-a:3′,2′-e]pyrazin-3-yl)methyl)piperazin-1-yl)benzamide] | ≥ 50.1 nM | >2000 |
| Cc1cc(C(=O)NC2CC2)ccc1N1CCN(Cc2cnc3c(c2)NC(=O)[C@@H]2CCCCN32)CC1 [Compound 115, (S)—N-cyclopropyl-3-methyl-4-(4-((6-oxo-6,6a,7,8,9,10-hexahydro-5H-dipyrido[1,2-a:3′,2′-e]pyrazin-3-yl)methyl)piperazin-1-yl)benzamide] | 15.8 to 39.8 nM | >2000 |
| O=C(NC1CC1)c1ccc(N2CCN(Cc3cnc4c(c3)NC(=O)[C@@H]3CCCCN43)CC2)c(F)c1 [Compound 116, (S)—N-cyclopropyl-3-fluoro-4-(4-((6-oxo-6,6a,7,8,9,10-hexahydro-5H-dipyrido[1,2-a:3′,2′-e]pyrazin-3-yl)methyl)piperazin-1-yl)benzamide] | ≤ 12.6 nM | >5000 |
| O=C(NC1CC1)c1ccc(N2CCN(Cc3cnc4c(c3)NC(=O)[C@@H]3CCCCN43)CC2)c(Cl)c1 [Compound 117, (S)-3-chloro-N-cyclopropyl-4-(4-((6-oxo-6,6a,7,8,9,10-hexahydro-5H-dipyrido[1,2-a:3′,2′-e]pyrazin-3-yl)methyl)piperazin-1-yl)benzamide] | 15.8 to 39.8 nM | >5000 |
| COc1cc(C#N)ccc1N1CCN(Cc2cnc3c(c2)NC(=O)[C@@H]2CCCCN32)CC1 [Compound 118, (S)-3-methoxy-4-(4-((6-oxo-6,6a,7,8,9,10-hexahydro-5H-dipyrido[1,2-a:3′,2′-e]pyrazin-3-yl)methyl)piperazin-1-yl)benzonitrile] | ≤ 12.6 nM | >5000 |
| CC1CN(c2ccccn2)CCN1Cc1cnc2c(c1)NC(=O)[C@@H]1CCCN21 (stereo partly drawn) [Compound 120, (6aS)-3-((2-methyl-4-(pyridin-2-yl)piperazin-1-yl)methyl)-6a,7,8,9-tetrahydropyrido[3,2-e]pyrrolo[1,2-a]pyrazin-6(5H)-one] | ≥ 50.1 nM | ≧0 |
| O=C1Nc2cc(CC3CCN(c4ccc(Cl)cc4)CC3)cnc2N2CCC[C@@H]12 [Compound 122, (S)-3-((1-(4-chlorophenyl)piperidin-4-yl)methyl)-6a,7,8,9-tetrahydropyrido[3,2-e]pyrrolo[1,2-a]pyrazin-6(5H)-one] | ≥ 50.1 nM | ≧0 |
| N#Cc1ccc(N2CCN(Cc3cnc4c(c3)NC(=O)[C@@H]3CCCN43)CC2)cn1 [Compound 123, (S)-5-(4-((6-oxo-5,6,6a,7,8,9-hexahydropyrido[3,2-e]pyrrolo[1,2-a]pyrazin-3-yl)methyl)piperazin-1-yl)picolinonitrile] | 15.8 to 39.8 nM | >10 |
